Read-outs that look alike come from different tables or passages of the source. One block for each compound: values may come before it.
What was measured:
[1] = tested on: HDAC enzymes (HeLa nuclear extract, mixed-HDAC isoforms); experiment: Fluor-de-Lys HDAC activity assay kit, HeLa nuclear extract as source of HDAC enzymes; format: biochemical, human; conditions: compounds at 100 µM
Method: The in vitro HDAC inhibitions of the obtained compounds were carried out with the assay kit containing mixed-HDAC isoforms. […] Therefore, the results were not fully related. However, compounds with good binding affinities should have the potential to be specific HDAC inhibitors for each isoform.
The semi-synthetic derivatives were evaluated for their ability to inhibit HDAC enzymes. Inhibition of HDAC activity in vitro was assessed using the Fluor-de-Lys HDAC activity assay kit (Biomol, Enzo Life Sciences International, Inc., Farmingdale, NY, USA). The HeLa nuclear extract provided with the kit was used as a source of HDAC enzymes for the in vitro study. TSA was used as the positive control. The HeLa nuclear extract, substrate, buffer and inhibitors were incubated. Deacetylation of the substrate was performed next by adding a developer to generate a fluorophore. The spectra Max Gemini XPS microplate spectrofluorometer (Molecular Devices, San Jose, CA, USA) was used to measure fluorescence signal with excitation at 360 nm and emission at 460 nm. A decrease in fluorescence signal indicated an inhibition of HDAC activity. Trichostatin A (TSA) was used as a positive control. All experiments were carried out in triplicate.

[2] = tested on: human cervical cancer (HeLa) cells; experiment: MTT assay, HeLa cells; format: cell-based; conditions: for IC50: read-out: IC50 Values (Mean ± SD; n = 3), HeLa cells
Method: (§1) The MTT reduction assay was performed with non-cancer (Vero), human cervical cancer (HeLa), human colon cancer (HCT116), human breast adenocarcinoma cancer (MCF-7), and cholangiocarcinoma (H-69 […], KKU-100 and KKU-M213B) cell lines according to the previously described method. Briefly, cells were seeded in 96-well plates. The next day, cells were exposed to the selected compounds at various concentrations and incubated for 24, 48 and 72 h. After incubation, the culture medium was exchanged with 110 µL of MTT (0.5 mg/mL in PBS medium) and further incubated for 2 h. The amount of MTT formazan product was determined after dissolving in DMSO by measuring its absorbance with a microplate reader (Bio-Rad Laboratories, Hercules, CA, USA) at a test wavelength of 550 nm and a reference wavelength of 655 nm. The cell viability was expressed as a percentage of the viable cells of control culture conditions, and the IC50 values of each group were calculated.

[3] = tested on: human colon cancer (HCT116) cells; experiment: MTT assay, HCT116 cells; format: cell-based
Method: as §1

[4] = tested on: human breast adenocarcinoma cancer (MCF-7) cells; experiment: MTT assay, MCF-7 cells; format: cell-based
Method: as §1

H-69 cells = experiment: MTT assay, H-69 cells; format: cell-based
Method: as §1

[5] = tested on: cholangiocarcinoma KKU-100 cells; experiment: MTT assay, KKU-100 cells; format: cell-based, human
Method: as §1

[6] = tested on: cholangiocarcinoma KKU-M213B cells; experiment: MTT assay, KKU-M213B cells; format: cell-based, human; conditions: read-out: IC50 Values (Mean ± SD; n = 3)
Method: as §1

Vero cells = experiment: MTT assay, non-cancer Vero cells; format: cell-based; conditions: Chlorocebus sabaeus, read-out: IC50 Values (Mean ± SD; n = 3)
Method: as §1

[7] = read-out: IC50 Values (Mean ± SD; n = 3), 24 h
[8] = read-out: IC50 Values (Mean ± SD; n = 3), 48 h
[9] = read-out: IC50 Values (Mean ± SD; n = 3), 72 h

%HDAC Inhibition [1]: 54%
SMILES: CCCCCC1CC(CCc2ccc(O)c(OC)c2)=NN1c1ccccc1F (stereo not shown) [Compound 5e, 4-(2-(1-(2-fluorophenyl)-5-pentyl-4,5-dihydro-1H-pyrazol-3-yl)ethyl)-2-methoxyphenol]

%HDAC Inhibition [1]: 77%
SMILES: CCCCCC1CC(CCc2ccc(O)c(OC)c2)=NN1c1ccc(F)cc1 (stereo not shown) [Compound 5f, 4-(2-(1-(4-fluorophenyl)-5-pentyl-4,5-dihydro-1H-pyrazol-3-yl)ethyl)-2-methoxyphenol]

%HDAC Inhibition [1]: 63%
SMILES: CCCCCC1CC(CCc2ccc(O)c(OC)c2)=Nc2ccccc2N1 (stereo not shown) [Compound 7, 2-Methoxy-4-(2-(2-pentyl-2,3-dihydro-1H-benzo[b][1,4]diazepin-4-yl)ethyl)phenol]

SMILES: N.N.[Cl][Pt][Cl] [Cisplatin, reference compound]
IC50 ([2]; 24 h): 17.1 ± 1 µM
IC50 ([2]; 48 h): 9.97 ± 0.34 µM
IC50 ([2]; 72 h): 6.45 ± 0.12 µM
IC50 [3, 7]: 21 ± 2.56 µM
IC50 [3, 8]: 7.61 ± 0.61 µM
IC50 [3, 9]: 4.98 ± 0.77 µM
IC50 [4, 7]: 29.2 ± 1.35 µM
IC50 [4, 8]: 13.8 ± 0.54 µM
IC50 [4, 9]: 10.4 ± 0.25 µM
IC50 (H-69 cells; [7]): > 20 µM
IC50 (H-69 cells; [8]): > 20 µM
IC50 (H-69 cells; [9]): 15.8 ± 0.35 µM
IC50 [5, 7]: 17.32 ± 0.12 µM
IC50 [5, 8]: 11.2 ± 0.14 µM
IC50 [5, 9]: 7.57 ± 0.07 µM
IC50 ([6]; 24 h): > 20 µM
IC50 ([6]; 48 h): 18.6 ± 0.57 µM
IC50 ([6]; 72 h): 13 ± 0.61 µM

SMILES: CC(/C=C/C(=O)NO)=C\[C@@H](C)C(=O)c1ccc(N(C)C)cc1 [TSA, Trichostatin A, reference compound]
%HDAC Inhibition [1]: 92%

%HDAC Inhibition [1]: 60%
SMILES: CCCCCC1CC(CCc2ccc(O)c(OC)c2)=NN1c1cccc(Cl)c1 (stereo not shown) [Compound 5g, 4-(2-(1-(3-chlorophenyl)-5-pentyl-4,5-dihydro-1H-pyrazol-3-yl)ethyl)-2-methoxyphenol]

%HDAC Inhibition [1]: 68%
SMILES: CCCCCC1CC(CCc2ccc(O)c(OC)c2)=NN1c1ccc(Cl)cc1 (stereo not shown) [Compound 5h, 4-(2-(1-(4-chlorophenyl)-5-pentyl-4,5-dihydro-1H-pyrazol-3-yl)ethyl)-2-methoxyphenol]

%HDAC Inhibition [1]: 73%
SMILES: CCCCC/C=C/C(CCc1ccc(O)c(OC)c1)=N\Nc1ccc(C(=O)O)cc1 [Compound 4b, 4-(2-((3Z,4E)-1-(4-Hydroxy-3-methoxyphenyl)dec-4-en-3-ylidene)hydrazinyl)benzo-ic acid]

%HDAC Inhibition [1]: 73%
SMILES: CCCCC/C=C/C(CCc1ccc(O)c(OC)c1)=N\NC1=NCC=N1 [Compound 4e, 4-((3Z,4E)-3-(2-(4H-Imidazol-2-yl)hydrazono)dec-4-en-1-yl)-2-methoxyphenol]

%HDAC Inhibition [1]: 83%
IC50 ([2]; Homo sapiens, 24 h): 83.8 ± 1.83 µM
IC50 ([2]; Homo sapiens, 48 h): 56.8 ± 1.24 µM
IC50 ([2]; Homo sapiens, 72 h): 23.1 ± 0.76 µM
IC50 ([3]; Homo sapiens, HCT-116, read-out: IC50 Values (Mean ± SD; n = 3), 24 h): 94.4 ± 2.7 µM
IC50 ([3]; Homo sapiens, HCT-116, read-out: IC50 Values (Mean ± SD; n = 3), 48 h): 39.2 ± 1.06 µM
IC50 ([3]; Homo sapiens, HCT-116, read-out: IC50 Values (Mean ± SD; n = 3), 72 h): 34.5 ± 0.66 µM
IC50 ([4]; Homo sapiens, MCF7, read-out: IC50 Values (Mean ± SD; n = 3), 24 h): 56.6 ± 3.21 µM
IC50 ([4]; Homo sapiens, MCF7, read-out: IC50 Values (Mean ± SD; n = 3), 48 h): 50.5 ± 1.64 µM
IC50 ([4]; Homo sapiens, MCF7, read-out: IC50 Values (Mean ± SD; n = 3), 72 h): 31.8 ± 0.88 µM
SMILES: CCCCCC1CC(CCc2ccc(O)c(OC)c2)=NN1c1ccc(C(=O)O)cc1 (stereo not shown) [Compound 5k, 4-(3-(4-hydroxy-3-methoxyphenethyl)-5-pentyl-4,5-dihydro-1H-pyrazol-1-yl)benzo ic acid]
IC50 (Vero cells; 24 h): 143 ± 2.15 µM
IC50 (Vero cells; 48 h): 128 ± 1.73 µM
IC50 (Vero cells; 72 h): 116.7 ± 1.13 µM
selectivity towards HeLa cells than non-cancer cells ([2]; HeLa versus non-cancer cells): about 5 fold
IC50 (H-69 cells; Homo sapiens, NCI-H69, read-out: IC50 Values (Mean ± SD; n = 3), 24 h): 68.7 ± 1.15 µM
IC50 (H-69 cells; Homo sapiens, NCI-H69, read-out: IC50 Values (Mean ± SD; n = 3), 48 h): 52.7 ± 1.73 µM
IC50 (H-69 cells; Homo sapiens, NCI-H69, read-out: IC50 Values (Mean ± SD; n = 3), 72 h): 47.6 ± 0.73 µM
IC50 ([5]; Homo sapiens, KKU100, read-out: IC50 Values (Mean ± SD; n = 3), 24 h): 68.1 ± 1.98 µM
IC50 ([5]; Homo sapiens, KKU100, read-out: IC50 Values (Mean ± SD; n = 3), 48 h): 38.9 ± 0.65 µM
IC50 ([5]; Homo sapiens, KKU100, read-out: IC50 Values (Mean ± SD; n = 3), 72 h): 26.99 ± 0.08 µM
IC50 ([6]; Homo sapiens, 24 h): 63.2 ± 2.52 µM
IC50 ([6]; Homo sapiens, 48 h): 35.7 ± 1.4 µM
IC50 ([6]; Homo sapiens, 72 h): 29.1 ± 1.17 µM

Reference: publication PMC9144829, “Histone Deacetylase Inhibitory Activity and Antiproliferative Potential of New [6]-Shogaol Derivatives” (Molecules, 2022)
